Laboratory results reported in patent US11083725B2 (priority 2014, dated 2021).

Tested on: NHBE cells
Test: Biolog metabolic array: substrate use by NHBE cells with or without CA09 infection
Assay type: cell-based, human
Settings: for Substrate use, 590 nm absorbance normalized to zero hour, 0 hr: Biolog PMM2, 0 hr; for Substrate use, 590 nm absorbance normalized to zero hour, 1 hr: Biolog PMM2, 1 hr; for Substrate use, 590 nm absorbance normalized to zero hour, 5 hr: Biolog PMM2, 5 hr; for Substrate use, 590 nm absorbance normalized to zero hour, 7 hr: Biolog PMM2, 7 hr
[1] = Control (uninfected) NHBE cells
[2] = Virus (CA09-infected NHBE cells, MOI 1)
[3] = Virus: CA09-infected NHBE cells, MOI 1, Biolog PMM2
[4] = Virus (CA09-infected, MOI 1) NHBE cells

Substance	590 nm absorbance normalized to zero hour (substrate use), 0 hr [1]	590 nm absorbance normalized to zero hour (substrate use), 1 hr [1]	590 nm absorbance normalized to zero hour (substrate use), 2 hr [1]	590 nm absorbance normalized to zero hour (substrate use), 3 hr [1]	590 nm absorbance normalized to zero hour (substrate use), 6 hr [1]	590 nm absorbance normalized to zero hour (substrate use), 8 hr [1]	590 nm absorbance normalized to zero hour (substrate use), 9 hr [1]	590 nm absorbance normalized to zero hour (substrate use), 10 hr [1]	590 nm absorbance normalized to zero hour (substrate use), 11 hr [1]	Substrate use, 590 nm absorbance normalized to zero hour, 0 hr [1]	Substrate use, 590 nm absorbance normalized to zero hour, 7 hr [1]	590 nm absorbance normalized to zero hour (substrate use), 0 hr [3]	590 nm absorbance normalized to zero hour (substrate use), 1 hr [3]	590 nm absorbance normalized to zero hour (substrate use), 2 hr [3]	590 nm absorbance normalized to zero hour (substrate use), 3 hr [3]	590 nm absorbance normalized to zero hour (substrate use), 5 hr [3]	590 nm absorbance normalized to zero hour (substrate use), 7 hr [3]	590 nm absorbance normalized to zero hour (substrate use), 8 hr [3]	590 nm absorbance normalized to zero hour (substrate use), 9 hr [3]	590 nm absorbance normalized to zero hour (substrate use), 11 hr [3]	also measured
Chondroitin Sulfate C	1.00	1.60	1.94	2.10	3.28	2.56	2.92	3.00	2.49	1.00	2.63	1.00	1.22	1.41	1.45	1.62	1.63	1.65	1.72	1.75	590 nm absorbance normalized to zero hour (substrate use), 4 hr [1]: 2.19; Substrate use, 590 nm absorbance normalized to zero hour, 1 hr [1]: 1.60; Substrate use, 590 nm absorbance normalized to zero hour, 5 hr [1]: 2.50; 590 nm absorbance normalized to zero hour (substrate use), 0 hr [2]: 1.00; 590 nm absorbance normalized to zero hour (substrate use), 1 hr [2]: 1.22; 590 nm absorbance normalized to zero hour (substrate use), 2 hr [2]: 1.41; 590 nm absorbance normalized to zero hour (substrate use), 3 hr [2]: 1.45; 590 nm absorbance normalized to zero hour (substrate use), 5 hr [2]: 1.62; 590 nm absorbance normalized to zero hour (substrate use), 6 hr [2]: 1.61; 590 nm absorbance normalized to zero hour (substrate use), 7 hr [2]: 1.63; 590 nm absorbance normalized to zero hour (substrate use), 8 hr [2]: 1.65; 590 nm absorbance normalized to zero hour (substrate use), 9 hr [2]: 1.72; 590 nm absorbance normalized to zero hour (substrate use), 10 hr [2]: 1.69; 590 nm absorbance normalized to zero hour (substrate use), 11 hr [2]: 1.75; 590 nm absorbance normalized to zero hour (substrate use), 6 hr [3]: 1.61; 590 nm absorbance normalized to zero hour (substrate use), 10 hr [3]: 1.69
Dextrin	1.00		3.19	4.01	4.79	8.34	9.71	8.28	8.41	1.00	7.35	1.00	2.14	2.79	3.43	4.91	6.11	6.72	7.89	6.40	Substrate use, 590 nm absorbance normalized to zero hour, 5 hr [1]: 6.14; 590 nm absorbance normalized to zero hour (substrate use), 0 hr [4]: 1.00; 590 nm absorbance normalized to zero hour (substrate use), 1 hr [4]: 2.14; 590 nm absorbance normalized to zero hour (substrate use), 2 hr [4]: 2.79; 590 nm absorbance normalized to zero hour (substrate use), 3 hr [4]: 3.43; 590 nm absorbance normalized to zero hour (substrate use), 4 hr [4]: 3.84; 590 nm absorbance normalized to zero hour (substrate use), 5 hr [4]: 4.91; 590 nm absorbance normalized to zero hour (substrate use), 6 hr [4]: 5.56; 590 nm absorbance normalized to zero hour (substrate use), 7 hr [4]: 6.11; 590 nm absorbance normalized to zero hour (substrate use), 8 hr [4]: 6.72; 590 nm absorbance normalized to zero hour (substrate use), 9 hr [4]: 7.89; 590 nm absorbance normalized to zero hour (substrate use), 10 hr [4]: 8.23; 590 nm absorbance normalized to zero hour (substrate use), 11 hr [4]: 6.40; 590 nm absorbance normalized to zero hour (substrate use), 4 hr [3]: 3.84; 590 nm absorbance normalized to zero hour (substrate use), 6 hr [3]: 5.56; 590 nm absorbance normalized to zero hour (substrate use), 10 hr [3]: 8.23
Glycogen	1.00	1.61			4.32	4.85	4.87	4.50	5.01	1.00	4.20	1.00	1.68	2.26	2.71	3.70	4.74	5.48	3.99	4.63	590 nm absorbance normalized to zero hour (substrate use), 4 hr [1]: 2.80; Substrate use, 590 nm absorbance normalized to zero hour, 1 hr [1]: 1.61; Substrate use, 590 nm absorbance normalized to zero hour, 3 hr (Control (uninfected) NHBE cells, Biolog PMM2, 3 hr): 2.58; 590 nm absorbance normalized to zero hour (substrate use), 0 hr [4]: 1.00; 590 nm absorbance normalized to zero hour (substrate use), 1 hr [4]: 1.68; 590 nm absorbance normalized to zero hour (substrate use), 2 hr [4]: 2.26; 590 nm absorbance normalized to zero hour (substrate use), 3 hr [4]: 2.71; 590 nm absorbance normalized to zero hour (substrate use), 4 hr [4]: 2.92; 590 nm absorbance normalized to zero hour (substrate use), 5 hr [4]: 3.70; 590 nm absorbance normalized to zero hour (substrate use), 7 hr [4]: 4.74; 590 nm absorbance normalized to zero hour (substrate use), 8 hr [4]: 5.48; 590 nm absorbance normalized to zero hour (substrate use), 9 hr [4]: 3.99; 590 nm absorbance normalized to zero hour (substrate use), 10 hr [4]: 4.33; 590 nm absorbance normalized to zero hour (substrate use), 11 hr [4]: 4.63; 590 nm absorbance normalized to zero hour (substrate use), 4 hr [3]: 2.92; 590 nm absorbance normalized to zero hour (substrate use), 10 hr [3]: 4.33
Mannan	1.00	1.03	0.89	1.03	1.80	1.08	1.09	1.11	1.27	1.00	1.15	1.00	1.03	1.25	1.28	1.41	1.49	1.49	1.61	1.76	590 nm absorbance normalized to zero hour (substrate use), 4 hr [1]: 1.06; Substrate use, 590 nm absorbance normalized to zero hour, 1 hr [1]: 1.03; Substrate use, 590 nm absorbance normalized to zero hour, 5 hr [1]: 1.14; 590 nm absorbance normalized to zero hour (substrate use), 0 hr [4]: 1.00; 590 nm absorbance normalized to zero hour (substrate use), 1 hr [4]: 1.03; 590 nm absorbance normalized to zero hour (substrate use), 2 hr [4]: 1.25; 590 nm absorbance normalized to zero hour (substrate use), 3 hr [4]: 1.28; 590 nm absorbance normalized to zero hour (substrate use), 5 hr [4]: 1.41; 590 nm absorbance normalized to zero hour (substrate use), 6 hr [4]: 1.44; 590 nm absorbance normalized to zero hour (substrate use), 7 hr [4]: 1.49; 590 nm absorbance normalized to zero hour (substrate use), 8 hr [4]: 1.49; 590 nm absorbance normalized to zero hour (substrate use), 9 hr [4]: 1.61; 590 nm absorbance normalized to zero hour (substrate use), 11 hr [4]: 1.76; 590 nm absorbance normalized to zero hour (substrate use), 6 hr [3]: 1.44
